Laboratory results: PubChem BioAssay (NCI)
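Where inhibition never reached the appropriate level, the endpoint shown equals the highest concentration tested. Otherwise, values were interpolated linearly from a five-concentration, 48-hour dose response in 96-well plates. Definition used: TGI = concentration required for complete inhibition of growth.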

How the values were obtained:
Experiment in all cases: NCI-60 cell line screen, 48 h
786-0 renal = system: 786-0 renal
A498 renal = system: A498 renal
A549 NSCLC = system: A549 NSCLC
CAKI-1 renal = system: CAKI-1 renal
CCRF-CEM leukemia = system: CCRF-CEM leukemia
COLO 205 colon = system: COLO 205 colon
DLD-1 colon = system: DLD-1 colon
DMS 114 small cell lung = system: DMS 114 small cell lung
DMS 273 small cell lung = system: DMS 273 small cell lung
HCC-2998 colon = system: HCC-2998 colon
HCT-116 colon = system: HCT-116 colon
HCT-15 colon = system: HCT-15 colon
HOP-62 NSCLC = system: HOP-62 NSCLC
HOP-92 NSCLC = system: HOP-92 NSCLC
HT29 colon = system: HT29 colon
IGROV1 ovarian = system: IGROV1 ovarian
K-562 leukemia = system: K-562 leukemia
KM12 colon = system: KM12 colon
KM20L2 colon = system: KM20L2 colon
LOX IMVI melanoma = system: LOX IMVI melanoma
LXFL 529 NSCLC = system: LXFL 529 NSCLC
M14 melanoma = system: M14 melanoma
MALME-3M melanoma = system: MALME-3M melanoma
MOLT-4 leukemia = system: MOLT-4 leukemia
NCI-H226 lung = system: NCI-H226 lung
NCI-H23 lung = system: NCI-H23 lung
NCI-H460 lung = system: NCI-H460 lung
NCI-H522 lung = system: NCI-H522 lung
OVCAR-3 ovarian = system: OVCAR-3 ovarian
OVCAR-4 ovarian = system: OVCAR-4 ovarian
OVCAR-5 ovarian = system: OVCAR-5 ovarian
OVCAR-8 ovarian = system: OVCAR-8 ovarian
RXF 393 renal = system: RXF 393 renal
SF-295 CNS = system: SF-295 CNS
SF-539 CNS = system: SF-539 CNS
SK-MEL-2 melanoma = system: SK-MEL-2 melanoma
SK-MEL-28 melanoma = system: SK-MEL-28 melanoma
SK-MEL-5 melanoma = system: SK-MEL-5 melanoma
SK-OV-3 ovarian = system: SK-OV-3 ovarian
SN12C renal = system: SN12C renal
SNB-75 CNS = system: SNB-75 CNS
SNB-78 CNS = system: SNB-78 CNS
SR leukemia = system: SR leukemia
SW-620 colon = system: SW-620 colon
TK-10 renal = system: TK-10 renal
U251 CNS = system: U251 CNS
UACC-257 melanoma = system: UACC-257 melanoma
UACC-62 melanoma = system: UACC-62 melanoma
UO-31 renal = system: UO-31 renal
XF 498 CNS = system: XF 498 CNS
ACHN renal = system: ACHN renal
EKVX NSCLC = system: EKVX NSCLC
HL-60(TB) leukemia = system: HL-60(TB) leukemia
M19-MEL melanoma = system: M19-MEL melanoma
RPMI-8226 leukemia = system: RPMI-8226 leukemia
SF-268 CNS = system: SF-268 CNS
SNB-19 CNS = system: SNB-19 CNS

## CNCC(=O)Nc1ccc2c(c1)C(=O)c1ccc(NC(=O)CNC)cc1C2=O
786-0 renal
  TGI: 15.7 µM
A498 renal
  TGI: 28.5 µM
A549 NSCLC
  TGI: 25.6 µM
CAKI-1 renal
  TGI: 20 µM
CCRF-CEM leukemia
  TGI: 11 µM
COLO 205 colon
  TGI: 11 µM
DLD-1 colon
  TGI: 29.9 µM
DMS 114 small cell lung
  TGI: 7.12 µM
DMS 273 small cell lung
  TGI: 10.7 µM
HCC-2998 colon
  TGI: 14.6 µM
HCT-116 colon
  TGI: 11.9 µM
HCT-15 colon
  TGI: 23.2 µM
HOP-62 NSCLC
  TGI: 9.98 µM
HOP-92 NSCLC
  TGI: 7 µM
HT29 colon
  TGI: 16.2 µM
IGROV1 ovarian
  TGI: 38 µM
K-562 leukemia
  TGI: 7.19 µM
KM12 colon
  TGI: 10.4 µM
KM20L2 colon
  TGI: 21.1 µM
LOX IMVI melanoma
  TGI: 4.17 µM
LXFL 529 NSCLC
  TGI: 12.3 µM
M14 melanoma
  TGI: 11.8 µM
MALME-3M melanoma
  TGI: 12.9 µM
MOLT-4 leukemia
  TGI: 10.1 µM
NCI-H226 lung
  TGI: 20.3 µM
NCI-H23 lung
  TGI: 31.6 µM
NCI-H460 lung
  TGI: 12.3 µM
NCI-H522 lung
  TGI: 4.81 µM
OVCAR-3 ovarian
  TGI: 11.1 µM
OVCAR-4 ovarian
  TGI: 5.68 µM
OVCAR-5 ovarian
  TGI: 34.8 µM
OVCAR-8 ovarian
  TGI: 10.2 µM
RXF 393 renal
  TGI: 20.3 µM
SF-295 CNS
  TGI: 18.6 µM
SF-539 CNS
  TGI: 11.2 µM
SK-MEL-2 melanoma
  TGI: 11.7 µM
SK-MEL-28 melanoma
  TGI: 10.1 µM
SK-MEL-5 melanoma
  TGI: 17.9 µM
SK-OV-3 ovarian
  TGI: 3.81 µM
SN12C renal
  TGI: 11.9 µM
SNB-75 CNS
  TGI: 27.1 µM
SNB-78 CNS
  TGI: 10.7 µM
SR leukemia
  TGI: 7.54 µM
SW-620 colon
  TGI: 12.3 µM
TK-10 renal
  TGI: 44.9 µM
U251 CNS
  TGI: 10.4 µM
UACC-257 melanoma
  TGI: 16.1 µM
UACC-62 melanoma
  TGI: 22.2 µM
UO-31 renal
  TGI: 25.7 µM
XF 498 CNS
  TGI: 8.25 µM

## O=S1(=O)OCCOS(=O)(=O)C1(Br)Cc1ccccc1
786-0 renal
  TGI: > 100 µM
A498 renal
  TGI: > 100 µM
A549 NSCLC
  TGI: > 100 µM
ACHN renal
  TGI: > 100 µM
CCRF-CEM leukemia
  TGI: > 100 µM
COLO 205 colon
  TGI: > 100 µM
DLD-1 colon
  TGI: > 100 µM
DMS 114 small cell lung
  TGI: > 100 µM
DMS 273 small cell lung
  TGI: > 100 µM
EKVX NSCLC
  TGI: > 100 µM
HCC-2998 colon
  TGI: > 100 µM
HCT-116 colon
  TGI: > 100 µM
HCT-15 colon
  TGI: > 100 µM
HL-60(TB) leukemia
  TGI: > 100 µM
HOP-62 NSCLC
  TGI: > 100 µM
HOP-92 NSCLC
  TGI: > 100 µM
HT29 colon
  TGI: > 100 µM
IGROV1 ovarian
  TGI: > 100 µM
K-562 leukemia
  TGI: > 100 µM
KM20L2 colon
  TGI: > 100 µM
LOX IMVI melanoma
  TGI: > 100 µM
LXFL 529 NSCLC
  TGI: > 100 µM
M14 melanoma
  TGI: > 100 µM
M19-MEL melanoma
  TGI: > 100 µM
MALME-3M melanoma
  TGI: > 100 µM
MOLT-4 leukemia
  TGI: > 100 µM
NCI-H226 lung
  TGI: > 100 µM
NCI-H23 lung
  TGI: > 100 µM
NCI-H460 lung
  TGI: > 100 µM
NCI-H522 lung
  TGI: > 100 µM
OVCAR-3 ovarian
  TGI: > 100 µM
OVCAR-4 ovarian
  TGI: > 100 µM
OVCAR-5 ovarian
  TGI: > 100 µM
OVCAR-8 ovarian
  TGI: > 100 µM
RPMI-8226 leukemia
  TGI: > 100 µM
RXF 393 renal
  TGI: > 100 µM
SF-268 CNS
  TGI: > 100 µM
SF-295 CNS
  TGI: > 100 µM
SF-539 CNS
  TGI: > 100 µM
SK-MEL-2 melanoma
  TGI: > 100 µM
SK-MEL-28 melanoma
  TGI: > 100 µM
SK-MEL-5 melanoma
  TGI: > 100 µM
SK-OV-3 ovarian
  TGI: > 100 µM
SN12C renal
  TGI: > 100 µM
SNB-19 CNS
  TGI: > 100 µM
SNB-75 CNS
  TGI: > 100 µM
SNB-78 CNS
  TGI: > 100 µM
SR leukemia
  TGI: > 100 µM
SW-620 colon
  TGI: > 100 µM
TK-10 renal
  TGI: > 100 µM
U251 CNS
  TGI: > 100 µM
UACC-257 melanoma
  TGI: > 100 µM
UACC-62 melanoma
  TGI: > 100 µM
UO-31 renal
  TGI: > 100 µM
XF 498 CNS
  TGI: > 100 µM

## COC(=O)/C(=N\NC(=O)c1ccccc1O)C(C#N)c1ccccc1 (stereo unspecified)
786-0 renal
  TGI: > 50 µM
A498 renal
  TGI: > 48.4 µM
A549 NSCLC
  TGI: > 50 µM
ACHN renal
  TGI: > 50 µM
CAKI-1 renal
  TGI: > 50 µM
CCRF-CEM leukemia
  TGI: > 50 µM
COLO 205 colon
  TGI: > 50 µM
DLD-1 colon
  TGI: > 50 µM
DMS 114 small cell lung
  TGI: > 50 µM
DMS 273 small cell lung
  TGI: > 50 µM
EKVX NSCLC
  TGI: > 48.4 µM
HCC-2998 colon
  TGI: > 50 µM
HCT-116 colon
  TGI: > 50 µM
HCT-15 colon
  TGI: > 50 µM
HL-60(TB) leukemia
  TGI: > 50 µM
HOP-62 NSCLC
  TGI: > 50 µM
HOP-92 NSCLC
  TGI: > 50 µM
HT29 colon
  TGI: > 50 µM
IGROV1 ovarian
  TGI: > 50 µM
K-562 leukemia
  TGI: > 50 µM
KM12 colon
  TGI: > 50 µM
KM20L2 colon
  TGI: > 50 µM
LOX IMVI melanoma
  TGI: > 50 µM
LXFL 529 NSCLC
  TGI: > 50 µM
M14 melanoma
  TGI: > 50 µM
M19-MEL melanoma
  TGI: > 50 µM
MALME-3M melanoma
  TGI: > 50 µM
MOLT-4 leukemia
  TGI: > 50 µM
NCI-H226 lung
  TGI: 46.1 µM
NCI-H23 lung
  TGI: > 40.7 µM
NCI-H460 lung
  TGI: > 50 µM
NCI-H522 lung
  TGI: > 50 µM
OVCAR-3 ovarian
  TGI: > 40.6 µM
OVCAR-4 ovarian
  TGI: > 50 µM
OVCAR-5 ovarian
  TGI: > 50 µM
OVCAR-8 ovarian
  TGI: > 50 µM
RPMI-8226 leukemia
  TGI: > 50 µM
RXF 393 renal
  TGI: 34.1 µM
SF-268 CNS
  TGI: > 50 µM
SF-295 CNS
  TGI: > 50 µM
SF-539 CNS
  TGI: > 43.3 µM
SK-MEL-2 melanoma
  TGI: > 50 µM
SK-MEL-28 melanoma
  TGI: > 50 µM
SK-MEL-5 melanoma
  TGI: > 50 µM
SK-OV-3 ovarian
  TGI: > 50 µM
SN12C renal
  TGI: > 50 µM
SNB-19 CNS
  TGI: > 50 µM
SNB-75 CNS
  TGI: > 50 µM
SNB-78 CNS
  TGI: > 50 µM
SW-620 colon
  TGI: > 50 µM
TK-10 renal
  TGI: > 50 µM
U251 CNS
  TGI: > 50 µM
UACC-257 melanoma
  TGI: > 50 µM
UACC-62 melanoma
  TGI: > 32.8 µM
UO-31 renal
  TGI: 37.6 µM
XF 498 CNS
  TGI: > 50 µM
